Measurements reported in patent US6214805A, “RNase L activators and antisense oligonucleotides effective to treat RSV infections” (priority 1997, dated 2001).
pEC50, pIC50: −log10 of the molar value.

Legend:
Hep-2 Cells = experiment: Cytotoxicity to Hep-2 cells (visual and dye uptake, rapidly dividing cells); assay type: cell-based, human
Text: (§1) A comparison of the efficacies of spA4 -antiRSV3'3'T/(8281-8299) treatment and conventional ribarvirin treatment can be obtained by determining the RSV-inhibitory concentration and the cytotoxic concentration of each compound. Cultures of the human laryngeal carcinoma cell line HEp-2 and the […] renal cell line MA-104 were established and infected with an MOI=0.005. Cultures were fed twice daily. Treatment with either ribavirin or spA4 -antiRSV3'3'T/(8281-8299) was begun simultaneously with infection and continued for four days. Treatment was then withdrawn and the test read on day 5. The effects of treatment on RSV infection were reported as 1) an EC50, the concentration at which there was a 50% reduction in the observable cytopathic effects of infection and 2) an EC90, the concentration at which there was a 90% reduction in viral production. […] Therapeutic efficacy is estimated by the Selectivity Index, which is the ratio of IC50 /EC50.
(§2) IC50 50% inhibitory concentration for cytotoxicity to cells (visual

RSV strain A2 [1] = experiment: Antiviral activity in Hep-2 cells, neutral red (reduction of RSV-induced CPE); assay type: cell-based, Respiratory syncytial virus; details: neutral red, MOI = 0.005, added twice daily for 4 d, read on d 5
Text: as §1
determined with RSV strain A2, MOI = 0.005
(§3) Fresh medium and oligo or ribavirin added twice daily for 4 d and test read
(§4) EC50 effective concentration to reduce RSV-induced CPE by 50%.

RSV M2 RNA = experiment: RT-PCR of M2 RNA from RSV-infected 9HTE cells; assay type: cell-based, Respiratory syncytial virus; details: RNA at 8 h post-infection, M.O.I.=10
Description: To determine if RSV RNA levels correlated with antiviral activity, RT-PCR analysis was performed on RNA isolated from RSV-infected and uninfected 9HTE cells with and without treatment with spA4 -antiRSV3'3'T/(8281-8299) or spA4 -antiRSV3'3'A/(8530-8547). An M2 RNA sequence in RSV (from nucleotides 7879 to 8465) was converted to cDNA and amplified by PCR. M2 RNA from the RSV-infected cells produced an RT-PCR DNA product that was clearly visible. […] Levels of GAPDH transcripts were similar in all of these RNA preparations.
RNA was collected from 2×10^5 9HTE cells at 8 h post-infection (M.O.I.=10) by RNAzol treatment as described by the manufacturer (Tel-Test, Inc, Freindswood, Tex.). RNA was isolated after 8 h to limit RSV replication to a single cycle. Isolated RNA (≈1 μg) was incubated with 100 pmoles of the appropriate downstream (-) primer listed below or 100 pmoles of random hexamer (used for glyceraldehyde-3-phosphatedehydrogenase, GAPDH, mRNA only). RNA and primers were heated to 70° C. for 10 min then cooled rapidly on ice for 5 min. […]
25 μl Hot-Start upper buffer contained 5 U Taq DNA polymerase (GibcoBRL) and 1/10th of the cDNA from the RT reaction. […] Aliquots of the RT/PCR mixtures were analyzed on 1% agarose/TBE gels.

RSV strain A2 [2] = experiment: Antiviral activity in MA-104 cells, visual CPE; assay type: cell-based, Respiratory syncytial virus; details: visual CPE, MOI = 0.005, added twice daily for 4 d, read on d 5
Text: as §1
(§5) as determined with RSV strain A2, MOI = 0.005
as §3, §4

RSV strain A2 [3] = experiment: Virus yield reduction in MA-104 cells; assay type: cell-based, Respiratory syncytial virus; details: RSV yield reduced by 90%, MOI = 0.005, added twice daily for 4 d
Text: as §1, §5, §3
EC90 effective concentration to reduce RSV yield by 90%.

RSV strain A2 [4] = experiment: Inhibition of RSV replication in RSV-infected 9HTE cells, virus plaque assay on CV-1 cells at 36 h post-infection; assay type: cell-based, Respiratory syncytial virus; details: for % Inhibition of RSV replication: 9HTE cells, M.O.I. 2.0, 36 hrs post-infection
Text: To develop 2-5A antisense chimeras with the potential to block RSV replication, an oligonucleotide binding site in the viral RNA polymerase (RSV L) mRNA, which encodes a low abundance message that is absolutely required for RSV replication was selected. The first chimera synthesized and evaluated was pA4 -antiRSV/(8490-8509). The binding sites for the chimeric oligonucleotide's antisense domain are to the transcripts of nucleotides 8490-8509 in the RSV genome, which spans the translation start codon for the L protein, and to nucleotides 8490-8509 of the antigenomic strand (the template for reproduction of the genome). Since to function as an effective treatment, a candidate agent must be able to inhibit viral replication subsequent to diagnosis, the anti-RSV effect of the 2-5A antisense chimera was determined on human tracheal epithelial cells, 9HTE, with treatments beginning either 4 h before RSV infection (pre-/post-infection treatments) or 2 h following infection (post-infection treatments). In the post-infection treatments, pA4 -antiRSV/([…]), was added at t+2, t+14 and t+26, (numbers represent time in h relative to time of infection, 0) For pre-infection treatment, pA4 -antiRSV/(8490-8509) (10 μM final concentration), was added at t-4, and t0 in addition to […]; t+14 and t+26. Virus harvested from control and oligonucleotide-treated 9HTE cells was measured by infecting CV-1 cells and subsequently counting viral plaques. […] On the basis of these experiments, all subsequent experiments were performed with post-infectiontreatments only. Additionally, these experiments indicate the potential use of these compounds as a treatment for active infection as compared to a prophylactic measure.
The human tracheal epithelial cell line, 9HTE, (Gruenert et al., 1988) and CV-1 cells, (American Type Culture Collection, Rockville, Md., CCI#70) a green monkey kidney cell line which is highly permissive to RSV infection, were cultured in minimal essential medium (MEM) supplemented with 10% (v/v) fetal bovine serum (FBS), 2 mM L-glutamine, 1× MEM amino acids solution, 1× MEM non-essential amino acids solution, 100 U/ml penicillin, 100 μg/ml streptomycin and 0.25 μg/ml amphotericin B ("culture medium") (all reagents from Gibco BRL, Bethesda, Md.). RSV strain A2 (ATCC No. VR1302) was propagated in CV-1 cells. CV-1 monolayers were infected at a multiplicity of infection (M.O.I.) of 0.2 and cultured 46 h in MEM, 2% FBS, 1× Penicillin/Streptomycin (PS) in 5% CO2, 95% O2 at 37° C. Cells were then washed 2 times in MEM and subsequently covered in MEM, 2% FBS, 1× PS, 50 mM HEPES (pH7.5), 100 mM Mg(SO4). After 2 h at 37° C., cells were scraped and sonicated as previously described (Panuska et al., 1995). Aliquots (1 ml each) of cell sonicates were flash frozen in ethanol/dry ice within 20 min of scraping. Several aliquots were then thawed and titered by a plaque assay on CV-1 cells as previously described (Cirino et al., 1993). The range of virus yield from this procedure was 2 to 7×10^6 plaque forming units (pfu) per ml.
Infection of 9HTE cells was performed as previously described (Merolla et al., 1994). Briefly, confluent monolayers were exposed to RSV diluted in MEM, 2% FBS, for 2 h at 37° C. in 5% CO2, 95% O2. After exposure, cells were washed two times with serum-free MEM media and then fresh culture media (with 10% FBS) was added. Oligonucleotides were either added 4 h prior to infection (t-4) or immediately after infection (t+2) and also at t+14 and t+26. Cells were harvested for plaque assays at 36 h post-infection to determine viral titers as previously described (Cirino et al., 1993). Cells were washed twice to remove any residual antisense and were then scraped in MEM containing 2% FBS, 1× PS. 9HTE cells were sonicated for 20 sec on ice then the extracts were serially diluted and transferred to a confluent monolayer of CV-1 for quantitation of infectious viral particles. […]

MA-104 Cells = experiment: Cytotoxicity to MA-104 cells (visual and dye uptake, rapidly dividing cells); assay type: cell-based, murine
Text: as §1, §2

spA2'p(A2'p)3 -[(Bu)p]2 -(5'atg gtt att tgg gtt gtt3'-3't5') [spA4-antiRSV3'-3'T/(8281-8299)]
pIC50 (Hep-2 Cells): < 5.00
pEC50 (RSV strain A2 [1]): 6.52
M2 RNA RT-PCR product (RSV M2 RNA): no M2 RNA detected
pEC50 (RSV strain A2 [2]): 7.70
EC90 (RSV strain A2 [3]): 20 nM
% Inhibition of RSV replication (RSV strain A2 [4]; 3.3 μM oligonucleotide/treatment at t+2, t+14, t+26 h): 91.3%
% Inhibition of RSV replication (RSV strain A2 [4]; 6.6 μM oligonucleotide/treatment at t+2, t+14, t+26 h): 97%
% Inhibition of RSV replication (RSV strain A2 [4]; 9.9 μM oligonucleotide/treatment at t+2, t+14, t+26 h): 99.6%
comparison of anti-RSV activities (FIG. 3) (RSV strain A2 [4]; spA4-linked versus spA2-linked oligonucleotide): greater potency
pIC50 (MA-104 Cells): < 5.00
